This experiment concerns the target human recombinant P2X7 receptor (Homo sapiens (Human), UniProt Q99572). The experiment in a line: YO-PRO1 uptake assay in HEK cells stably expressing human P2X7. Particulars: HEK-293 cells expressing human recombinant P2X7; 250 μM ATP, 90 minutes; YO-PRO-1 fluorescence; read-out: IC50 (antagonistic activity with respect to the P2X7 receptor). Format: cell-based. The protocol:
Cell Line Generation and YO-PRO Assay Cell line generation was performed in general according to established molecular cloning protocols. Specifically, RNA was extracted from human whole blood using the Qiagen RNeasy kit (Qiagen, CH) according to the manufacturer's instructions. […] BC011913) was amplified with the following primers: [NT] and [NT] The amplified sequence was subsequently ligated into a pcDNA3.1 (+) NotI, NheI digested plasmid. Human embryonic kidney (HEK) cells (ATCC CRL-1573, Manassas, Va., USA) were transfected with the pcDNA3.1 (+). hP2X7 plasmid using lipofectamine 2000 (Invitrogen AG, CH) according to the manufacturer's instructions. Following a 24 h exposure to DNA, cells were trypsinized and re-seeded at low density in the presence of 250 μg Geneticin. Geneticin resistant cells were then selected during two consecutive rounds of cloning by serial limiting dilution with visual inspection. […] Specific cell clones were chosen based on RNA and protein expression. […] Cells were grown to confluency in adherent culture at 37° C. in a humidified 5% CO2 incubator (split 1⁄5 every 3-4 days with DMEM, 10% FCS, 1% Penicillin/Streptomycin, 250 μg/ml Geneticin). […] Medium was removed from cells and 50 μl of assay buffer containing 0.5 μM YO-[…] was added into the wells. Solutions of antagonist compounds were prepared by serial dilutions of a 10 mM DMSO solution of the antagonist into PBS using a BioMek (Beckman Coulter). Each concentration was performed in duplicate. […] The cells were incubated with the antagonists of the present invention together with ATP at a final concentration of 250 μM for 90 minutes. During this time period, four time points were taken. Each time point comprised the average of several measurements made within a few seconds. Fluorescence was measured in the FLIPR tetra (Molecular Devices) using the filters appropriate for YO-[…] fluorescence (excitation 485/20, emission 530/25). The FLIPR tetra was equipped with Molecular Devices Screen Works system control software to define and run experimental protocols. […] For IC50 measurements the maximum intensity is plotted against the concentration of compound to determine IC50 values.

Chain of human recombinant P2X7 receptor (Q99572 whole entry): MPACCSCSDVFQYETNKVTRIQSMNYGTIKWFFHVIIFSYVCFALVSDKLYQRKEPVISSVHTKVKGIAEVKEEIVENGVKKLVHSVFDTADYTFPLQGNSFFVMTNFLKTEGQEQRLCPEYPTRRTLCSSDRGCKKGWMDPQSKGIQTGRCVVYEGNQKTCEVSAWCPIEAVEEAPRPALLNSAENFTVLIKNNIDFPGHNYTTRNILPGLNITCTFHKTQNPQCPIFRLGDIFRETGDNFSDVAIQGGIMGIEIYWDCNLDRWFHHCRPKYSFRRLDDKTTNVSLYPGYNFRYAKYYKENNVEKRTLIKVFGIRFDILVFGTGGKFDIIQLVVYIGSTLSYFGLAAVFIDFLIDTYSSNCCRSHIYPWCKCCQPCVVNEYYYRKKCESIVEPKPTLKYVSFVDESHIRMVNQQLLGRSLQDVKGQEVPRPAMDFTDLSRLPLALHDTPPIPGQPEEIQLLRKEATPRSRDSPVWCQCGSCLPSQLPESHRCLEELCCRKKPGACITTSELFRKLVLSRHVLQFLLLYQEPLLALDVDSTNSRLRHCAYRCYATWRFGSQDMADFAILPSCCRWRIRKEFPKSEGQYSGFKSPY

As to `O=C(NCC1(c2ccc(Cl)nc2)CCC(F)(F)CC1)C1CCCc2ncsc21` (centres unmarked) [Example 14, N-((1-(6-chloropyridin-3-yl)-4,4-difluorocyclohexyl)methyl)-4,5,6,7-tetrahydrobenzo[d]thiazole-7-carboxamide], the IC50 was 6.3 nM.
Next, `O=C(N[C@H](CO)C1CCCCC1)C1CCCc2ncsc21` (stereo partly drawn) [Example 12, N-((S)-1-cyclohexyl-2-hydroxyethyl)-4,5,6,7-tetrahydrobenzo[d]thiazole-7-carboxamide]: 41 nM; `O=C(NCC(c1ccc(C(F)(F)F)nc1)N1CCOCC1)C1COc2ncsc21` (centres unmarked) [Example 4, N-(2-morpholino-2-(6-(trifluoromethyl)pyridin-3-yl)ethyl)-5,6-dihydrofuro[2,3-d]thiazole-6-carboxamide]: 332 nM; `Cc1ncc(C(CNC(=O)C2COc3ncsc32)N2CCC(F)(F)CC2)cn1` (centres unmarked) [Example 3, N-(2-(4,4-difluoropiperidin-1-yl)-2-(2-methylpyrimidin-5-yl)ethyl)-5,6-dihydrofuro[2,3-d]thiazole-6-carboxamide]: 2040 nM.
With `Cc1ncc(C(CNC(=O)C2CCOc3ncsc32)N2CCOCC2)cn1` (centres unmarked) [Example 9, N-(2-(2-methylpyrimidin-5-yl)-2-morpholinoethyl)-6,7-dihydro-5H-pyrano[2,3-d]thiazole-7-carboxamide] the figure was 1430 nM; with `O=C(NCC1(c2ccc(Cl)nc2)CCCCC1)C1COc2ncsc21` (centres unmarked) [Example 2, N-((1-(6-chloropyridin-3-yl)cyclohexyl)methyl)-5,6-dihydrofuro[2,3-d]thiazole-6-carboxamide], 28 nM.
With `C[C@@H](NC(=O)C1CCCc2ncsc21)C1CCCCC1` (stereo partly drawn) [Example 11, N-((R)-1-cyclohexylethyl)-4,5,6,7-tetrahydrobenzo[d]thiazole-7-carboxamide] the figure was 60 nM; with `O=C(N[C@H](CO)C1CCCCC1)C1CCc2ncsc21` (stereo partly drawn) [Example 5, N-((S)-1-cyclohexyl-2-hydroxyethyl)-5,6-dihydro-4H-cyclopenta[d]thiazole-6-carboxamide], 272 nM.
For the compound `Cc1ncc(C(CNC(=O)C2CCc3ncsc32)N2CCC(F)(F)CC2)cn1` (centres unmarked) [Example 7, N-(2-(4,4-difluoropiperidin-1-yl)-2-(2-methylpyrimidin-5-yl)ethyl)-5,6-dihydro-4H-cyclopenta[d]thiazole-6-carboxamide], the IC50 is 478 nM.
With `O=C(N[C@H](CO)C1CCCCC1)C1CCOc2ncsc21` (stereo partly drawn) [Example 8, N-((S)-1-cyclohexyl-2-hydroxyethyl)-6,7-dihydro-5H-pyrano[2,3-d]thiazole-7-carboxamide] the figure was 340 nM; with `O=C(NCC1(c2ccc(Cl)nc2)CCCCC1)C1CCCc2ncsc21` (centres unmarked) [Example 13, N-((1-(6-chloropyridin-3-yl)cyclohexyl)methyl)-4,5,6,7-tetrahydrobenzo[d]thiazole-7-carboxamide], 3.4 nM; with `O=C(NC(CO)C1CCCCCC1)C1COc2ncsc21` (centres unmarked) [Example 1, N-(1-cycloheptyl-2-hydroxyethyl)-5,6-dihydrofuro[2,3-d]thiazole-6-carboxamide], 818 nM.
Next, `O=C(N[C@H](CO)C1CCCCC1)C1CCCCc2ncsc21` (stereo partly drawn) [Example 17, N-((S)-1-cyclohexyl-2-hydroxyethyl)-5,6,7,8-tetrahydro-4H-cyclohepta[d]thiazole-8-carboxamide]: 543 nM; `Cc1ncc(C(CNC(=O)C2CCc3ncsc32)N2CCOCC2)cn1` (centres unmarked) [Example 6, N-(2-(2-methylpyrimidin-5-yl)-2-morpholinoethyl)-5,6-dihydro-4H-cyclopenta[d]thiazole-6-carboxamide]: 1370 nM; `O=C(N[C@H](CO)C1CCCCC1)C1CCCCc2ncsc21` (stereo partly drawn) [Example 16, N-((S)-1-cyclohexyl-2-hydroxyethyl)-5,6,7,8-tetrahydro-4H-cyclohepta[d]thiazole-8-carboxamide]: 348 nM.
Next, `O=C(NCC(c1ccc(Cl)nc1)N1CCC(F)(F)CC1)C1CCOc2ncsc21` (centres unmarked) [Example 10, N-(2-(6-chloropyridin-3-yl)-2-(4,4-difluoropiperidin-1-yl)ethyl)-6,7-dihydro-5H-pyrano[2,3-d]thiazole-7-carboxamide]: 74 nM; `O=C(NCC(c1cnc(C(F)(F)F)nc1)N1CCOCC1)C1CCCc2ncsc21` (centres unmarked) [Example 15, N-(2-morpholino-2-(2-(trifluoromethyl)pyrimidin-5-yl)ethyl)-4,5,6,7-tetrahydrobenzo[d]thiazole-7-carboxamide]: 33 nM.

By IC50 is commonly meant the concentration that gives 50% inhibition.

Source of the values: patent publication US9388198B2, “Heterocyclic amide derivatives as P2X7 receptor antagonists” (ACTELION PHARMACEUTICALS LTD, priority 2014, dated 2016).
